Measured values published in patent publication US7045528B2, “Benzofused heterozryl amide derivatives of thienopyridines useful as therapeutic agents, pharmaceutical compositions including the same, and methods for their use” (Agouron Pharmaceuticals, Inc., priority 2002, dated 2006).
Read-outs that look alike come from different tables or passages of the source.

Assays:
PDGFRβ = target: T1, PDGFRβ (Homo sapiens, UniProt P09619); experiment: PAE-PDGFRβ phosphorylation in PAE-PDGFRB cells assay; type: cell-based
T1 construct: expressed in transfected cells; host or cells: porcine aorta endothelial (PAE)-PDGFRβ cells
In short: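 PAE cells overexpressing human PDGFRβ, serum-starved 16 h (0.1% FBS), were given compound for 1 h at 37 °C (0.5% DMSO) and then stimulated with 1 μg/mL PDGF-BB plus 2 mM Na3VO4 for 8 min. Receptor autophosphorylation was read by capture ELISA (HRP-PY20, TMB, 450 nm); IC50 from 4-parameter fit.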

[1] = target: T2, unphosphorylated VEGF-R2Δ50 (FLVK) (Homo sapiens, UniProt P35968, DEL940-989/E990V); experiment: VEGF-R2 coupled spectrophotometric assay, unphosphorylated VEGF-R2Δ50 (FLVK); type: biochemical; conditions: for inhibition at 0.05 µM: 50 nM compound, read-out: FLVK (% inh @ 50 nM); for inhibition at 0.05 µM / Ki: unphosphorylated VEGF-R2Δ50; for inhibition at 0.1 µM: read-out: FLVK (% @ 100 nM)
T2 construct: VEGF-R2Δ50 contains residues 806–939 and 990–1171; made in house; host or cells: baculovirus/insect cell system
In short: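 Baculovirus-expressed human VEGF-R2Δ50 (kinase insert partly deleted, E990V), unphosphorylated form; ADP production coupled via PK/LDH to NADH oxidation, read at 340 nm. 20 mM poly(E4Y1), 3 mM ATP, 60 mM MgCl2, 2 mM MnCl2, 200 mM HEPES pH 7.5; 5–40 nM enzyme. Ki from Morrison tight-binding fit.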

[2] = system: human umbilical vein endothelial cells (HUVEC); experiment: HUVEC+VEGF proliferation assay; type: cell-based; conditions: Homo sapiens, HUVEC; VEGF 6 ng/mL, 72 h, MTT
In short: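 Exponentially growing passage 3–4 HUVEC were starved 24 h in F12K + 1% FBS, given compound (0.1% final DMSO) 1 h before 6 ng/mL final VEGF, then cultured 72 h. Proliferation was read as MTT dye reduction (4 h exposure), absorbance at 595 nm.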

Huvec = experiment: bFGF Huvec proliferation; type: cell-based, human; conditions: Homo sapiens, HUVEC
KDR (VEGFR2) = target: T3, KDR (VEGFR2) (Homo sapiens, UniProt P35968); experiment: KDR (VEGFR2) phosphorylation in PAE-KDR cells assay; type: cell-based; conditions: PAE cells overexpressing human KDR, VEGF stimulated; read-out: PAE KDR autophos IC50 (nM) AVG
T3 construct: expressed in transfected cells; host or cells: porcine aorta endothelial (PAE)-KDR cells
Method: KDR (VEGFR2) Phosphorylation in PAE-KDR Cells Assay
This assay determines the ability of a test compound to inhibit the autophosphorylation of KDR in porcine aorta endothelial (PAE)-KDR cells. PAE cells that overexpress human KDR were used in this assay. The cells were cultured in Ham's F12 media supplemented with 10% fetal bovine serum (FBS) and 400 ug/mL G418. Thirty thousands cells were seeded into each well of a 96-well plate in 75 μL of growth media and allowed to attach for 6 hours at 37° C. Cells were then exposed to the starvation media (Ham's F12 media supplemented with 0.1% FBS) for 16 hours. After the starvation period was over, 10 μL of test agent in 5% DMSO in starvation media were added to the test wells and 10 μL of the vehicle (5% DMSO in starvation media) were added into the control wells. The final DMSO concentration in each well was 0.5%. Plates were incubated at 37° C. for 1 hour and the cells were then stimulated with 500 ng/ml VEGF (commercially available from R & D System) in the presence of 2 mM Na3VO4 for 8 minutes. The cells were washed once with 1 mm Na3VO4 in HBSS and lysed by adding 50 μL per well of lysis buffer. One hundred μL of dilution buffer were then added to each well and the diluted cell lysate was transferred to a 96-well goat ant-rabbit coated plate (commercially available from Pierce) which was pre-coated with Rabbit anti Human Anti-flk-1 C-20 antibody (commercially available from Santa Cruz). The plates were incubated at room temperature for 2 hours and washed seven times with 1% Tween 20 in PBS. HRP-PY20 (commercially available from Santa Cruz) was diluted and added to the plate for a 30-minute incubation. Plates were then washed again and TMB peroxidase substrate (commercially available from Kirkegaard & Perry) was added for a 10-minute incubation. One hundred μL of 0.09 N H2SO4 was added to each well of the 96-well plates to stop the reaction. Phosphorylation status was assessed by spectrophotometer reading at 450 nm. IC50 values were calculated by curve fitting using a four-parameter analysis.

FGF-R1 = target: T4, FGF-R1 (Homo sapiens, UniProt P11362, C488A/C584S/L457V); experiment: FGF-R spectrophotometric assay; type: biochemical; conditions: percent inhibition at 100 nM; library amides from Example 101 (R101), crude mixtures in DMSO
T4 construct: starting from the endogenous methionine residue 456 to glutamate 766; made in house; host or cells: baculovirus vector expression system
Method: FGF-R1 Construct for Assay:
The intracellular kinase domain of human FGF-R1 was expressed using the baculovirus vector expression system starting from the endogenous methionine residue 456 to glutamate 766, according to the residue numbering system of Mohammadi et al., Mol. Cell. Bio., 16, 977–989 (1996). In addition, the construct also has the following 3 amino acid substitutions: L457V, C488A, and C584S.
The spectrophotometric assay was carried out as described above for VEGF-R2, except for the following changes in concentration: FGF-R=50 nM, ATP=2 mM, and poly(E4Y1)=15 mM.

[3] = PAE cells overexpressing human PDGFRβ, PDGF-BB stimulated, read-out: PAE PDGFR autophos IC50 (nM) AVG
[4] = library amides from Example 101 (R101), crude mixtures in DMSO, read-out: PAE PDGFR autophos IC50
[5] = percent inhibition at 100 nM, library amides from Example 101 (R101), crude mixtures in DMSO

T4 sequence (P11362 456-766 L457V/C488A/C584S): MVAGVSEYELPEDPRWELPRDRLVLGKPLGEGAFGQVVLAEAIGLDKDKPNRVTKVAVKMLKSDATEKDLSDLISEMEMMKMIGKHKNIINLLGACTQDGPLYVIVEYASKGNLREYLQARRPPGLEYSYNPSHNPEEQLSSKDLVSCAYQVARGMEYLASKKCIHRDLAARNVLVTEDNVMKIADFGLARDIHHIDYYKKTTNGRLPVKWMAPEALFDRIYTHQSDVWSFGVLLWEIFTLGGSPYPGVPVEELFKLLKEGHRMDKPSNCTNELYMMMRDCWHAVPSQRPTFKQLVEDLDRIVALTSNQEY
T1 sequence (P09619 33-1106): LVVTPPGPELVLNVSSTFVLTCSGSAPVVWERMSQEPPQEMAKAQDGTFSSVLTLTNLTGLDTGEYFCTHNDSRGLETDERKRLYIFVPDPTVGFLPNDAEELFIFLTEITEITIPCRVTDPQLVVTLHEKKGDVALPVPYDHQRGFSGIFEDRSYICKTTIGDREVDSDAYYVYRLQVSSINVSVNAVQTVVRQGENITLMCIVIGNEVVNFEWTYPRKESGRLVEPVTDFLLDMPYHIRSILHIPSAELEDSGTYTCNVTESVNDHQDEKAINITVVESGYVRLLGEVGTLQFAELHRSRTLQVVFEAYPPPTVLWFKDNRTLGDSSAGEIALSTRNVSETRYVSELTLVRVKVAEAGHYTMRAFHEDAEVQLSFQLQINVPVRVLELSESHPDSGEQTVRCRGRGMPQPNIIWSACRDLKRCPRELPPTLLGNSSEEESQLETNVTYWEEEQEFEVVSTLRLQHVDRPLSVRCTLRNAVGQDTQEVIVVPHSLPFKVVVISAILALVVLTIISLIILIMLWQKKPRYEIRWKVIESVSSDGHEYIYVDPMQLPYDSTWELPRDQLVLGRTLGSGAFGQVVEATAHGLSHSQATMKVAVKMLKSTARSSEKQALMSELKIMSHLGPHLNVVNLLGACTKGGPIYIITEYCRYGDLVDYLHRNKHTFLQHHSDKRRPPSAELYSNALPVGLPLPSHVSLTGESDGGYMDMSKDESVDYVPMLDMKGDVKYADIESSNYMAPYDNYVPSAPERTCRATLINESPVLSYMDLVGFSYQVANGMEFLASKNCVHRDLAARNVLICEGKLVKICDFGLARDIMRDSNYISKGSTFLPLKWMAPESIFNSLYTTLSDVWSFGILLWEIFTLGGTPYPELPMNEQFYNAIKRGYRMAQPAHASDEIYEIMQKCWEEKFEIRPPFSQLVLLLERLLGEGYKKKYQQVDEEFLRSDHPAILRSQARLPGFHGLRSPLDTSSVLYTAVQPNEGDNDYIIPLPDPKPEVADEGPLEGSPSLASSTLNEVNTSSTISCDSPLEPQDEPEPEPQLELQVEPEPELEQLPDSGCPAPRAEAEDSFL
T2 sequence (P35968 with tags, fused parts or gaps DEL940-989/E990V limits assumed): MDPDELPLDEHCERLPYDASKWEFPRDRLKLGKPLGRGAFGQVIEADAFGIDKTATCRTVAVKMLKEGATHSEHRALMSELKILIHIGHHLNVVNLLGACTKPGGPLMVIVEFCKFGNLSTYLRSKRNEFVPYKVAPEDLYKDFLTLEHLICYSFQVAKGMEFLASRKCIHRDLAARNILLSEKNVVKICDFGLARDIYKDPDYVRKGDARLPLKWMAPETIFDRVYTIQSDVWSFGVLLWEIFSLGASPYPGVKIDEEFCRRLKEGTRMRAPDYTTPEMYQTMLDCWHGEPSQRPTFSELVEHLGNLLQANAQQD
T3 sequence (P35968 20-1356): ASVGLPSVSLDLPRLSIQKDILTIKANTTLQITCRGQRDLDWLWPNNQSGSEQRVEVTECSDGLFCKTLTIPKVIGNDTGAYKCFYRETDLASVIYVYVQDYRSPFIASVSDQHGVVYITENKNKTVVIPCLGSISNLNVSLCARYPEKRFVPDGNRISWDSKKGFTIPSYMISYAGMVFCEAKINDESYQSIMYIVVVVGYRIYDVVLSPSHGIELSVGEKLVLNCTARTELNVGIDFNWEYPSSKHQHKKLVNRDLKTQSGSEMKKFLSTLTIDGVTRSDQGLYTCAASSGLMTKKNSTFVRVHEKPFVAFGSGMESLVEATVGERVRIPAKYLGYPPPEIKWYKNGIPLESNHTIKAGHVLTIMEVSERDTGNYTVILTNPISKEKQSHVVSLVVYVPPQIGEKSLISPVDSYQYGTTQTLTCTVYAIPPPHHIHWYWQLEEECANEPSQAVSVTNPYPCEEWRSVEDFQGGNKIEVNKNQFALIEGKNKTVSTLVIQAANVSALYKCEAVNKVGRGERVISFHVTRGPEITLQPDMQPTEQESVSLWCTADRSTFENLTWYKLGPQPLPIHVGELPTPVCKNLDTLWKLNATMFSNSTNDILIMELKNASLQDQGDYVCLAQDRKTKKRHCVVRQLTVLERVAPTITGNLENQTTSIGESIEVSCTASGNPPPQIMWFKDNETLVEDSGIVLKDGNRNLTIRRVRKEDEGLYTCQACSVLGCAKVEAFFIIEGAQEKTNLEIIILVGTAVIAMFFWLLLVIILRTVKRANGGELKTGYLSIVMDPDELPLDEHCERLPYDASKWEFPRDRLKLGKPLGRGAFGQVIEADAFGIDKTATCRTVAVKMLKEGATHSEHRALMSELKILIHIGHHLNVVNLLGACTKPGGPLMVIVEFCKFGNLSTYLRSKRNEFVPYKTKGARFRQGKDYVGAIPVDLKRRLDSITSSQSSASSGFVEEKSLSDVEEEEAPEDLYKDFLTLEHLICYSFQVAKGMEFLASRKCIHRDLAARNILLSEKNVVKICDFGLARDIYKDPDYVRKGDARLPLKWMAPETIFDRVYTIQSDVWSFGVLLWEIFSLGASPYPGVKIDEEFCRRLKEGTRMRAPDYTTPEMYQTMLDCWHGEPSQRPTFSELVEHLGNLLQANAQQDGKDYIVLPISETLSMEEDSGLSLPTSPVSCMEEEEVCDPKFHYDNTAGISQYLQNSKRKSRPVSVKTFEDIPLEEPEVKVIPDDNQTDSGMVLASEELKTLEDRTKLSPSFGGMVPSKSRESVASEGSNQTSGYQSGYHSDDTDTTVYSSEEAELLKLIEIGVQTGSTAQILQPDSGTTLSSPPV

Row | inhibition at 0.05 µM [1] [%] | Ki [1] [nM] | IC50 (PDGFRβ; [4]) [nM] | inhibition at 0.1 µM [1, 5] [%] | inhibition at 0.1 µM (FGF-R1) [%] | SMILES | IC50 [2] [nM] | IC50 (Huvec) [nM] | also measured
1 | 83 | 1.57 | – | – | – | CNC(=O)c1c(C)sc2cc(Oc3ccnc4cc(C(=O)N5CC(O)C5)sc34)ccc12 [Example 9, 6-(2-[3-Hydroxyazetidine-1-carbonyl]thieno[3,2-b]pyridin-7-yloxy)-2-methylbenzo[b]thiophene-3-carboxylic acid methylamide] | 13 | 135 | IC50 (PDGFRβ; [3]): 313 nM; melting point: 237 to 239 °C
2 | 63 | 9.8 | – | – | – | Cc1c(C(=O)NCC2CC2)c2ccc(Oc3ccnc4cc(-c5nc(C(C)(C)O)cs5)sc34)cc2n1C [Example 57, 6-{2-[4(1-Hydroxy-1-methyl-ethyl)-thiazol-2-yl]-thieno[3,2-b]pyridin-7-yloxy)-1,2-dimethyl-1H-indole-3-carboxylic acid cyclopropylmethyl-amide] | – | – | IC50 (KDR (VEGFR2)): 87 nM
3 | 95 | 1.04 | – | – | – | CNC(=O)c1c(C)sc2cc(Oc3ccnc4cc(C(=O)N5C[C@@H](O)[C@@H](O)C5)sc34)ccc12 [Example 7, 6-(2-[meso-3,4-dihydroxypyrrolidine-1-carbonyl]thieno[3,2-b]pyridin-7-yloxy)-2-methylbenzo[b]thiophene-3-carboxylic acid methylamide] | 1.21 | 2470 | IC50 (KDR (VEGFR2)): 1.95 nM
4 | 74 | 2.31 | – | – | – | CNC(=O)c1c(C)sc2cc(Oc3ccnc4cc(-c5ccnn5C)sc34)ccc12 [Example 10, 2-Methyl-6-(2-[2-methyl-2H-pyrazol-3-yl]thieno[3,2-b]pyridin-7-yloxy)benzo[b]thiophene-3-carboxylic acid methylamide] | 10 | 99 | IC50 (PDGFRβ; [3]): 451 nM; melting point: 210 to 212 °C
5 | – | – | 46 | 100 | 4 | Cc1cc(NC(=O)c2c(C)oc3cc(Oc4ccnc5ccsc45)ccc23)n[nH]1 [drawing 331] | – | – | –
6 | – | – | 53 | 103 | 2 | Cc1oc2cc(Oc3ccnc4ccsc34)ccc2c1C(=O)NCCCN1CCOCC1 [drawing 308] | – | – | –
7 | – | – | > 100 | 100 | 4 | Cc1oc2cc(Oc3ccnc4ccsc34)ccc2c1C(=O)Nc1nnc(C2CC2)s1 | – | – | –
8 | – | – | 61 | 94 | 0 | Cc1oc2cc(Oc3ccnc4ccsc34)ccc2c1C(=O)NCCOC(C)C [drawing 361] | – | – | –
9 | – | – | > 100 | 85 | 3 | Cc1oc2cc(Oc3ccnc4ccsc34)ccc2c1C(=O)NCC(c1ccc[nH]1)C(F)(F)F (centres unmarked) | – | – | –

Row | SMILES | inhibition at 0.05 µM [1] [%] | Ki [1] [nM] | IC50 (PDGFRβ; [4]) [nM] | inhibition at 0.1 µM [1, 5] [%] | inhibition at 0.1 µM (FGF-R1) [%] | IC50 [2] [nM] | IC50 (Huvec) [nM] | also measured
10 | Cc1cc(C)c(O)c(NC(=O)c2c(C)oc3cc(Oc4ccnc5ccsc45)ccc23)c1 | – | – | ~100 | – | 13 | – | – | inhibition at 0.1 µM [1]: 87%
